Source: patent publication US7803930B2, “Antisense modulation of apolipoprotein B-expression” (Isis Pharmaceuticals, Inc., priority 2002, dated 2010)
In the oligonucleotide strings, read from the 5' end, every base follows the letter of its sugar. An asterisk marks phosphorothioate; unmarked linkages are phosphodiester. Other units and linkages are bracketed, terminal groups are in braces. A string of capitals states the bases alone. e = 2'-O-(2-methoxyethyl) (MOE); [5mC] = 5-methylcytosine; d = 2'-deoxy (DNA)

What was measured:
[1] = High fat fed mice (Example 51): total, LDL- and HDL-cholesterol levels; assay type: in vivo, mouse; details: 50 mg/kg i.p. twice weekly
Method: In a further embodiment of the invention, the inhibition of apolipoprotein B mRNA in mice was compared to liver oligonucleotide concentration, total cholesterol, LDL-cholesterol and HDL-cholesterol. Male C57Bl/6 mice receiving a high fat diet (60% fat) were evaluated over the course of 6 weeks for the effects of treatment with twice weekly intraperitoneal injections of 50 mg/kg ISIS 147764 (SEQ ID NO: 109) or 50 mg/kg of the control oligonucleotide ISIS 141923 (SEQ ID NO: 858). Control animals received saline treatment. Animals were sacrificed after 2 days, 1, 2, 4 and 6 weeks of treatment. Each treatment group at each time point consisted of 8 mice.
Target expression in liver was measured by real-time PCR as described by other examples herein and is expressed as percent inhibition relative to saline treated mice. Total, LDL- and HDL-cholesterol levels were measured by routine clinical analysis using an Olympus Clinical Analyzer (Olympus America Inc., Melville, N.Y.) and are presented in mg/dL. Results from saline-treated animals are shown for comparison. Intact oligonucleotide in liver tissue was measured by capillary gel electrophoresis and is presented as micrograms of oligonucleotide per gram of tissue.
The oligonucleotide treatments described in this example were duplicated to investigate the extent to which effects of ISIS 147764 persist following cessation of treatment. Mice were treated as described, and sacrificed 1, 2, 4, 6 and 8 weeks following the cessation of oligonucleotide treatment.

[2] = system: mouse apolipoprotein B mRNA; experiment: High fat fed mice (Example 65): mouse apolipoprotein B mRNA and serum cholesterol levels; assay type: in vivo
Method: Male C57Bl/6 mice were divided into the following groups, consisting of 5 animals each: (1) mice on a lean diet, injected with saline (lean control); (2) mice on a high fat diet; (3) mice on a high fat diet injected with 50 mg/kg of the control oligonucleotide 141923 (SEQ ID NO: 858); (4) mice on a high fat diet given 20 mg/kg atorvastatin calcium (Lipitor®, Pfizer Inc.); (5) mice on a high fat diet injected with 10, 25 or 50 mg/kg ISIS 147764 (SEQ ID NO: 109). Saline and oligonucleotide treatments were administered intraperitoneally twice weekly for 6 weeks. Atorvastatin was administered daily for 6 weeks. At study termination, liver samples were isolated from each animal and RNA was isolated for Northern blot qualitative assessment, DNA microarray and quantitative real-time PCR. Northern blot assessment and quantitative real-time PCR were performed as described by other examples herein.
Mouse apolipoprotein B mRNA and serum cholesterol levels, measured as described herein, were evaluated to confirm antisense inhibition by ISIS 147764 and ISIS 147483. […] The 50 mg/kg dose of ISIS 147483 increased ALT and AST levels.

[3] = system: mouse apolipoprotein B protein; experiment: High fat fed mice (Example 51): serum apolipoprotein B protein, immunoblot; assay type: in vivo; details: high fat fed C57Bl/6 mice; 50 mg/kg i.p. twice weekly
Description: Furthermore, at 1, 2, 3 and 4 weeks of treatment, a inverse correlation between inhibition of target mRNA and cholesterol levels (total, HDL and LDL) is observed, with cholesterol levels lowering as percent inhibition of apolipoprotein B mRNA becomes greater. Serum samples were subjected to immunoblot analysis using an antibody to detect mouse apolipoprotein B protein (Gladstone Institute, San Francisco, Calif.).

[4] = system: human apolipoprotein B protein; experiment: Transgenic mice dosing study (Example 52): serum human apolipoprotein B protein by ELISA; assay type: in vivo, human transgene in mouse
Method: A long-term study of inhibition of human apolipoprotein B by ISIS 301012 in C57BL/6NTac-TgN(APOB100) mice (Taconic, Germantown, N.Y.) was conducted for a 3 month period. Mice were dosed intraperitoneally twice a week with 10 or 25 mg/kg ISIS 301012 (SEQ ID No: 247) for 12 weeks. Saline-injected animals served as controls. Each treatment group comprised 4 animals.
After 2, 4, 6, 8 and 12 weeks of treatment, serum samples were collected for the purpose of measuring human apolipoprotein B protein. Serum protein was quantitated using an ELISA kit specific for human apolipoprotein B (ALerCHEK Inc., Portland, Me.). The data are shown in Table 30 and each result represents the average of 4 animals. Data are normalized to saline-treated control animals.

[5] = high fat fed male C57Bl/6 mice, treatment period 1 week
[6] = high fat fed male C57Bl/6 mice, treatment period 2 weeks
[7] = high fat fed male C57Bl/6 mice, treatment period 4 weeks
[8] = high fat fed male C57Bl/6 mice, treatment period 6 weeks
[9] = high fat fed male C57Bl/6 mice, treatment period 2 days
[10] = high fat fed mice, 1 week after cessation of dosing
[11] = high fat fed mice, 2 weeks after cessation of dosing
[12] = high fat fed mice, 4 weeks after cessation of dosing
[13] = high fat fed mice, 6 weeks after cessation of dosing
[14] = high fat fed mice, 8 weeks after cessation of dosing

## 147764 (eG*eT*e[5mC]*e[5mC]*e[5mC]*dT*dG*dA*dA*dG*dA*dT*dG*dT*d[5mC]*eA*eA*eT*eG*e[5mC]) [compound 147764]
[1]; [5]
  HDL-cholesterol: 107 mg/dL
  LDL-cholesterol: 19 mg/dL
  Total cholesterol: 128 mg/dL
[1]; [6]
  HDL-cholesterol: 105 mg/dL
  LDL-cholesterol: 14 mg/dL
  Total cholesterol: 121 mg/dL
[1]; [7]
  HDL-cholesterol: 66 mg/dL
  LDL-cholesterol: 7 mg/dL
  Total cholesterol: 75 mg/dL
[1]; [8]
  HDL-cholesterol: 64 mg/dL
  LDL-cholesterol: 7 mg/dL
  Total cholesterol: 73 mg/dL
[1]; [9]
  HDL-cholesterol: 76 mg/dL
  LDL-cholesterol: 7 mg/dL
  Total cholesterol: 101 mg/dL
[1]; [10]
  HDL-cholesterol: 51 mg/dL
  LDL-cholesterol: 14 mg/dL
  Total cholesterol: 69 mg/dL
[1]; [11]
  HDL-cholesterol: 49 mg/dL
  LDL-cholesterol: 14 mg/dL
  Total cholesterol: 67 mg/dL
[1]; [12]
  HDL-cholesterol: 79 mg/dL
  LDL-cholesterol: 18 mg/dL
  Total cholesterol: 111 mg/dL
[1]; [13]
  HDL-cholesterol: 100 mg/dL
  LDL-cholesterol: 24 mg/dL
  Total cholesterol: 138 mg/dL
[1]; [14]
  HDL-cholesterol: 94 mg/dL
  LDL-cholesterol: 21 mg/dL
  Total cholesterol: 135 mg/dL

## GTCCCTGAAGATGTCAATGC (2'-MOE gapmer, further chemistry not given here) [ISIS 147764]
[2]
  mouse apolipoprotein B mRNA and serum cholesterol levels: lowered in a dose-dependent manner
[3]
  apolipoprotein B protein in serum (immunoblot): markedly reduced within 48 hours

## ISIS 301012: SEQ ID NO: 247, antisense oligonucleotide targeted to human apolipoprotein B (antisense GCCTCAGTCTGCTTCGCACC; chemistry not given here)
[4]; 10 mg/kg i.p. twice a week, 2 weeks
  % Reduction in human apolipoprotein B protein in serum: 76%
[4]; 10 mg/kg i.p. twice a week, 4 weeks
  % Reduction in human apolipoprotein B protein in serum: 78%
[4]; 10 mg/kg i.p. twice a week, 6 weeks
  % Reduction in human apolipoprotein B protein in serum: 73%
[4]; 10 mg/kg i.p. twice a week, 8 weeks
  % Reduction in human apolipoprotein B protein in serum: 42%
[4]; 10 mg/kg i.p. twice a week, 12 weeks
  % Reduction in human apolipoprotein B protein in serum: 85%
[4]; 25 mg/kg i.p. twice a week, 2 weeks
  % Reduction in human apolipoprotein B protein in serum: 80%
[4]; 25 mg/kg i.p. twice a week, 4 weeks
  % Reduction in human apolipoprotein B protein in serum: 87%
[4]; 25 mg/kg i.p. twice a week, 6 weeks
  % Reduction in human apolipoprotein B protein in serum: 86%
[4]; 25 mg/kg i.p. twice a week, 8 weeks
  % Reduction in human apolipoprotein B protein in serum: 47%
[4]; 25 mg/kg i.p. twice a week, 12 weeks
  % Reduction in human apolipoprotein B protein in serum: 79%
[4]; 10 or 25 mg/kg i.p. twice a week, 2, 4, 6 or 12 weeks
  lowering of human apolipoprotein B protein in serum (ELISA): approximately 80%
